From patent publication US20250134918A1, “COMPOSITIONS AND METHODS USING A NICOTINAMIDE ADENINE DINUCLEOTIDE (NAD+) PRECURSOR AND AT LEAST ONE KETONE OR KETONE PRECURSOR” (SOCIETE DES PRODUITS NESTLE S.A., priority 2018, published 2025)

Tested on: human iPSC-derived astrocytes (homozygous ApoE 3 or homozygous ApoE4 genotype)
Experiment: Oxygen consumption (Seahorse XF96), FCCP-uncoupled maximal respiration
Assay type: cell-based
Conditions: hiPSC-derived astrocytes, ApoE3 (FIG. 6) and ApoE4 (FIG. 7); NR 0.5 mM for 24 hours; BHB 0.5 mM or 2 mM or BHP 2 mM for 1 h; FCCP 1 μM
Procedure: Differentiated human iPSC-derived astrocytes with either a homozygous ApoE 3 genotype or homozygous ApoE4 genotype (and otherwise isogenic) were obtained from Cellular Dynamics International (CDI, Madison, WI, USA). The cells were thawed according to the manufacturer's instructions. Astrocytes were cultured in DMEM supplemented with 10% fetal calf serum and N2 complement. Oxygen consumption in human iPSC-derived astrocytes was measured in a Seahorse XF96 instrument (Seahorse Bioscience, North Billerica, MA, USA). Astrocytes were seeded directly into Seahorse 96-well tissue culture plates (XF96 FluxPaks no. 102416-100; Seahorse Bioscience) at a density of 40,000 cells per well. Cells were incubated for 24 hours with 0.5 mM of Nicotinamide riboside chloride (NR) or fresh medium before experiment. Four days after seeding, the cells were washed twice in KRBH containing 1 mM glucose and incubated for 1 h with the ketone bodies BHB (racemic (D,L) BHB) or BHP (D BHP) at the concentration indicated. The cells were maintained at 37° C. during the experiment. Mitochondrial respiration rates were determined every 6 minutes. […] The oxygen consumption rate in hiPSC-derived astrocytes was measured as an indication of mitochondrial function, using a Seahorse instrument. Through addition of the uncoupling agent FCCP, uncoupled (=maximal) respiration was determined.

Compound: NC(=O)c1ccc[n+]([C@@H]2O[C@H](CO)[C@@H](O)[C@H]2O)c1 [NR, Nicotinamide riboside chloride]
- maximal respiration (uncoupled oxygen consumption rate): Neither ketone bodies alone nor NR treatment significantly increases maximal respiration
